Assay results from US20130184272A1, “DIABETES THERAPEUTIC AGENT” (TAKEDA PHARMACEUTICAL COMPANY LIMITED, priority 2010, published 2013).

Experiments:
C2C12 cell = experiment: Sugar metabolism promoting activity in muscle cell (lactic acid production); type: cell-based, Mouse; conditions: compound 1 μM, 2 days, C2C12 myotubes, without drug = 100%; for activity at 1 µM: Mus musculus, 48 h, read-out: lactic acid production promoting action (%)
Procedure: • (1) In the same manner as in Example 1, C2C12 cell was cultured in a growth medium. After reaching subconfluence of not less than 90%, the medium was exchanged with a differentiation medium and the cells were cultured for about 7 days while exchanging the medium every 2 or 3 days until the cells differentiated to form a myotube. • (2) After confirmation of myotube formation under a microscope, the test compound (1 μM) was added to a differentiation medium and cultured for 2 days. The cells were washed with Krebs-Ringer HEPES phosphate buffer (10 mM HEPES, pH 7.4, 131 mM NaCl, 4.7 mM KCl, 2.5 mM CaCl2—2H2O, 1.2 mM MgSO4—7H2O, 1.2 mM KH2PO4), the medium was exchanged with Krebs-Ringer HEPES phosphate buffer added with 5 mM glucose, 0.2% fatty acid-free bovine serum albumin, and cultured at 37° C. for 4 hr. • (3) The lactic acid concentration of the culture supernatant was measured using Detarminer LA kit (Kyowa Medex Co., Ltd.).
The numerical values in Table 2 show the concentration of the compound addition group with the concentration of lactic acid without addition of a drug as 100%.

[1] = system: Mouse-derived myoblast line C2C12 cell; experiment: Cell differentiation promoting activity in myoblast (creatine kinase activity); type: cell-based; conditions: 2 days, without compound = 100%; for activity at 1 µM / activity at 0.01 µM / activity at 10 µM: Mus musculus, C2C12, 48 h, read-out: creatine kinase activating action (%); for activity at 0.01 µM: compound at 0.01 μM (**); for activity at 10 µM: compound at 10 μM (*)
Procedure: • (1) Mouse-derived myoblast line C2C12 cell (Dainippon Pharmaceutical Co., Ltd.) was subcultured in a high glucose Eagle's modified Dulbecco's medium (GIBCO) added with 10% calf fetal bovine serum (GIBCO), 100 unit/mL penicillin and 100 μg/mL streptomycin (hereinafter to be referred to as a growth medium), plated at 5000 cells/cm^2 and cultured at 37° C., under 5% CO2. • (2) When the cells reached subconfluence of not less than 90%, the medium was exchanged with high glucose Eagle's modified Dulbecco's medium (GIBCO) added with (i) 2% horse serum (GIBCO) and (ii) penicillin, streptomycin and a test compound (hereinafter to be referred to as a differentiation medium) and the cells were cultured for 2 days. To the control group was added DMSO solution instead of the test compound. • (3) The cells were washed with PBS, 0.5% NP-40 solution was added, and the cells were lysed by freeze-thawing. The cell extract was centrifuged and the creatine kinase activity in the supernatant was measured as an index of muscle differentiation. The creatine kinase activity was measured using CPKII Test Wako (Wako Pure Chemical Industries, Ltd.) according to the manual of the kit.
The numerical values in Table 1 show creatine kinase activity of the compound addition group when the creatine kinase activity without addition of the compound is 100%, and * means measurement with addition of the compound at 10 μM, ** at 0.01 μM, and others at 1 μM.

| SMILES | activity at 1 µM (C2C12 cell) [%] | activity at 1 µM ([1]; compound at 1 μM) [%] | activity at 0.01 µM [1] [%] | also measured |
| --- | --- | --- | --- | --- |
| CN(C)c1cccc(Oc2sc(C(N)=O)c3c2-c2c(cnn2C)CC3)c1 [Ref. Ex. 26, 8-[3-(dimethylamino)phenoxy]-1-methyl-4,5-dihydro-1H-thieno[3,4-g]indazole-6-carboxamide] | 175 | 156 |  |  |
| COc1ncccc1Oc1sc(C(N)=O)c2c1-c1c(cnn1C)CC2 [Ref. Ex. 34, 8-[(2-methoxypyridin-3-yl)oxy]-1-methyl-4,5-dihydro-1H-thieno[3,4-g]indazole-6-carboxamide] | 249 | 164 |  |  |
| Cn1ncc2c1-c1c(Oc3ccc(OCc4ccccn4)cc3)sc(C(N)=O)c1CC2 [Ref. Ex. 27, 1-methyl-8-[4-(pyridin-2-ylmethoxy)phenoxy]-4,5-dihydro-1H-thieno[3,4-g]indazole-6-carboxamide] | 198 |  | 163 |  |
| CCCCc1sc(C(N)=O)c2c1-c1c(cnn1C)CC2 [Ref. Ex. 14, 8-butyl-1-methyl-4,5-dihydro-1H-thieno[3,4-g]indazole-6-carboxamide] | 265 | 151 |  |  |
| COc1cccc(Oc2sc(C(N)=O)c3c2-c2c(cnn2C)CC3)c1 [Ref. Ex. 21, 8-(3-methoxyphenoxy)-1-methyl-4,5-dihydro-1H-thieno[3,4-g]indazole-6-carboxamide] | 184 |  | 198 |  |
| Cn1ncc2c1-c1c(OC3CCCC3)sc(C(N)=O)c1CC2 [Ref. Ex. 17, 8-(cyclopentyloxy)-1-methyl-4,5-dihydro-1H-thieno[3,4-g]indazole-6-carboxamide] | 141 | 177 |  |  |
| COCCOc1ccc(Oc2sc(C(N)=O)c3c2-c2c(cnn2C)CC3)cn1 [Ref. Ex. 42, 8-{[6-(2-methoxyethoxy)pyridin-3-yl]oxy}-1-methyl-4,5-dihydro-1H-thieno[3,4-g]indazole-6-carboxamide] | 319 |  | 179 |  |
| Cn1ncc2c1-c1c(Oc3ccc4ncccc4c3)sc(C(N)=O)c1CC2 [Ref. Ex. 18, 1-methyl-8-(quinolin-6-yloxy)-4,5-dihydro-1H-thieno[3,4-g]indazole-6-carboxamide] | 220 |  | 160 |  |
| CN(C)c1sc(C(N)=O)c2c1-c1c(cnn1C)CC2 [Ref. Ex. 36, 8-(dimethylamino)-1-methyl-4,5-dihydro-1H-thieno[3,4-g]indazole-6-carboxamide] | 211 | 139 |  |  |
| CNC(=O)c1sc(Oc2ccccc2)c2c1CCc1cnn(C)c1-2 [Ref. Ex. 6, N,1-dimethyl-8-phenoxy-4,5-dihydro-1H-thieno[3,4-g]indazole-6-carboxamide] | 187 | 164 |  |  |
| Cn1ncc2c1-c1c(Oc3ccc4c(c3)OCO4)sc(C(=O)NCc3ccncc3)c1CC2 [Ref. Ex. 28, 8-(1,3-benzodioxol-5-yloxy)-1-methyl-N-(pyridin-4-ylmethyl)-4,5-dihydro-1H-thieno[3,4-g]indazole-6-carboxamide] | 170 | 186 |  |  |
| Cn1ncc2c1-c1c(Oc3ccc(OCc4ccc5ccccc5n4)cc3)sc(C(N)=O)c1CC2 [Ref. Ex. 10, 1-methyl-8-[4-(quinolin-2-ylmethoxy)phenoxy]-4,5-dihydro-1H-thieno[3,4-g]indazole-6-carboxamide] | 259 |  | 193 |  |
| Cn1ncc2c1-c1c(Oc3cnc4ccccc4c3)sc(C(N)=O)c1CC2 [Ref. Ex. 30, 1-methyl-8-(quinolin-3-yloxy)-4,5-dihydro-1H-thieno[3,4-g]indazole-6-carboxamide] | 260 |  | 166 |  |
| Cn1ncc2c1-c1c(Oc3ccc[n+]([O-])c3)sc(C(N)=O)c1CC2 [Ref. Ex. 33, 1-methyl-8-[(1-oxidepyridin-3-yl)oxy]-4,5-dihydro-1H-thieno[3,4-g]indazole-6-carboxamide] |  |  |  | lactic acid production promoting action (%) (C2C12 cell): 155%; creatine kinase activating action (%) ([1]; compound at 1 μM): 156% |
| COc1ccc(Oc2sc(C(N)=O)c3c2-c2c(cnn2C)CC3)cn1 [Ref. Ex. 35, 8-[(6-methoxypyridin-3-yl)oxy]-1-methyl-4,5-dihydro-1H-thieno[3,4-g]indazole-6-carboxamide] | 228 |  | 192 |  |
| Cn1ncc2c1-c1c(S(=O)(=O)c3ccc4c(c3)OCO4)sc(C(N)=O)c1CC2 [Ref. Ex. 39, 8-(1,3-benzodioxol-5-ylsulfonyl)-1-methyl-4,5-dihydro-1H-thieno[3,4-g]indazole-6-carboxamide] | 207 | 176 |  |  |
| Cn1ncc2c1-c1c(Oc3ccc(OCc4ccncc4)cc3)sc(C(N)=O)c1CC2 [Ref. Ex. 23, 1-methyl-8-[4-(pyridin-4-ylmethoxy)phenoxy]-4,5-dihydro-1H-thieno[3,4-g]indazole-6-carboxamide] | 252 |  | 191 |  |
| Cn1ncc2c1-c1c(Oc3ccc(CC(=O)O)cc3)sc(C(N)=O)c1CC2 [Ref. Ex. 24, {4-[(6-carbamoyl-1-methyl-4,5-dihydro-1H-thieno[3,4-g]indazol-8-yl)oxy]phenyl}acetic acid] | 126 | 142 |  |  |
| Cn1ncc2c1-c1c(Oc3ccc4c(c3)OCO4)sc(C(N)=O)c1CC2(C)C [Ref. Ex. 29, 8-(1,3-benzodioxol-5-yloxy)-1,4,4-trimethyl-4,5-dihydro-1H-thieno[3,4-g]indazole-6-carboxamide] | 264 | 183 |  |  |
| CCCOc1sc(C(N)=O)c2c1-c1c(cnn1C)CC2 [Ref. Ex. 3, 1-methyl-8-propoxy-4,5-dihydro-1H-thieno[3,4-g]indazole-6-carboxamide] | 170 | 179 |  |  |
| Cn1ncc2c1-c1c(Oc3cccnc3N)sc(C(N)=O)c1CC2 [Ref. Ex. 32, 8-[(2-aminopyridin-3-yl)oxy]-1-methyl-4,5-dihydro-1H-thieno[3,4-g]indazole-6-carboxamide] | 295 | 101 |  |  |
| NC(=O)c1sc(Oc2ccccc2)c2c1CCc1cn[nH]c1-2 [Ref. Ex. 20, 8-phenoxy-4,5-dihydro-1H-thieno[3,4-g]indazole-6-carboxamide] | 167 | 121 |  |  |
| Cn1ncc2c1-c1c(Nc3ccccc3)sc(C(N)=O)c1CC2 [Ref. Ex. 12, 1-methyl-8-(phenylamino)-4,5-dihydro-1H-thieno[3,4-g]indazole-6-carboxamide] |  |  |  | activity at 10 µM [1]: 162% |
| CCCS(=O)(=O)c1sc(C(N)=O)c2c1-c1c(cnn1C)CC2 [Ref. Ex. 13, 1-methyl-8-(propylsulfonyl)-4,5-dihydro-1H-thieno[3,4-g]indazole-6-carboxamide] | 154 |  |  | activity at 10 µM [1]: 128% |
| CCCSc1sc(C(N)=O)c2c1-c1c(cnn1C)CC2 [Ref. Ex. 11, 1-methyl-8-(propylsulfanyl)-4,5-dihydro-1H-thieno[3,4-g]indazole-6-carboxamide] | 239 | 198 |  |  |
| Cn1ncc2c1-c1c(Oc3ccc(C[C@H](N)C(=O)N4CCOCC4)cc3)sc(C(N)=O)c1CC2 [Ref. Ex. 25, 8-{4-[(2S)-2-amino-3-morpholin-4-yl-3-oxopropyl]phenoxy}-1-methyl-4,5-dihydro-1H-thieno[3,4-g]indazole-6-carboxamide] | 235 | 180 |  |  |
| Cc1ccc(Oc2sc(C(N)=O)c3c2-c2c(cnn2C)CC3)cn1 [Ref. Ex. 31, 1-methyl-8-[(6-methylpyridin-3-yl)oxy]-4,5-dihydro-1H-thieno[3,4-g]indazole-6-carboxamide] | 253 |  | 150 |  |
| CN(CCOc1ncccc1Oc1sc(C(N)=O)c2c1-c1c(cnn1C)CC2)c1ccccc1 [Ref. Ex. 41, 1-methyl-8-[(2-{2-[methyl(phenyl)amino]ethoxy}pyridin-3-yl)oxy]-4,5-dihydro-1H-thieno[3,4-g]indazole-6-carboxamide] | 120 | 130 |  |  |
